Laboratory results published in ChEMBL document CHEMBL6177939, “The role of silicon in drug discovery: a review” (RSC Med Chem, 2024).
≈ marks a conversion by molar mass, not a printed value.

What was measured:
HCT-116 = test: Antiproliferative activity against human HCT-116 cells assessed as reduction in cell viability incubated for 72 hrs by MTT assay; type: functional, cell-based; details: HCT-116, 72 h
Escherichia coli [1] = test: Antibacterial activity against Escherichia coli assessed as reduction in bacterial growth incubated for 12 hrs by broth micr-dilution method; type: functional
Bacillus subtilis = test: Antibacterial activity against Bacillus subtilis assessed as reduction in bacterial growth incubated for 12 hrs by broth micr-dilution method; type: functional
Staphylococcus aureus [2] = test: Antibacterial activity against Staphylococcus aureus assessed as reduction in bacterial growth incubated for 12 hrs by broth micr-dilution method; type: functional
Vibrio cholerae = test: Antibacterial activity against Vibrio cholerae assessed as inhibition of bacterial growth; type: functional
HT-1080 [3] = test: Cytotoxicity against human HT-1080 cells assessed as reduction in cell growth measured for 72 hrs by crystal violet staining based analysis; type: functional; details: HT-1080, 72 h
MG-22A [4] = test: Cytotoxicity against mouse MG-22A cells assessed as reduction in cell growth measured for 72 hrs by crystal violet staining based analysis; type: functional
[5] = Agonist activity at rat GPR81 transfected in T-REX-CHO cells by cAMP assay; type: cell-based
[6] = target: Hydroxycarboxylic acid receptor 2 (Rattus norvegicus, UniProt Q80Z39); test: Agonist activity at rat GPR109A transfected in T-REX-CHO cells by cAMP assay; type: cell-based
Hydroxycarboxylic acid receptor 2, sequence (Q80Z39 whole entry): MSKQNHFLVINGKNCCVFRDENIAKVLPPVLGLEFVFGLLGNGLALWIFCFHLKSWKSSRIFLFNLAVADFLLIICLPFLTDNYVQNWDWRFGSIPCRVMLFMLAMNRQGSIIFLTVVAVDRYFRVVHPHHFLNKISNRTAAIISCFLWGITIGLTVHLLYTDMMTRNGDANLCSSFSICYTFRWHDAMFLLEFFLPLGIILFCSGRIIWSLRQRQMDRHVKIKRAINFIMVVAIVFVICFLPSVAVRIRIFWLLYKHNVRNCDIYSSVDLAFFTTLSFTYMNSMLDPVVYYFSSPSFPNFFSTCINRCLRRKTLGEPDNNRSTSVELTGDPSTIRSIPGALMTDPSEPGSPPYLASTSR

Staphylococcus aureus [7] = test: Antibacterial activity against Staphylococcus aureus PTCC 1112 assessed as reduction in cell growth incubated for 24 hrs by Mueller-Hinton Broth micro dilution method; type: functional
Escherichia coli [8] = test: Antibacterial activity against Escherichia coli PTCC 1330 assessed as reduction in cell growth incubated for 24 hrs by Mueller-Hinton Broth micro dilution method; type: functional
Salmonella typhimurium = test: Antibacterial activity against Salmonella enterica subsp. enterica serovar Typhimurium PTCC 1609 assessed as reduction in cell growth incubated for 24 hrs by Mueller-Hinton Broth micro dilution method; type: functional
Pseudomonas aeruginosa = test: Antibacterial activity against Pseudomonas aeruginosa PTCC 1074 assessed as reduction in cell growth incubated for 24 hrs by Mueller-Hinton Broth micro dilution method; type: functional
HT-1080 [9] = test: Cytotoxicity against human HT-1080 cells assessed as reduction in cell growth by measuring lethal concentration for 72 hrs by MTT assay; type: functional
MG-22A [10] = test: Cytotoxicity against mouse MG-22A cells assessed as reduction in cell growth by measuring lethal concentration for 72 hrs by MTT assay; type: functional
[11] = tested on: Human immunodeficiency virus 2; test: Antiviral activity against HIV-2 ROD infected in human MT-4 cells assessed as reduction in virus-induced cytopathic effect incubated for 5 days by spectrophotometric based MTT assay; type: functional, organism-based; details: Human immunodeficiency virus 2, ROD, MT4, 120 h
[12] = tested on: Staphylococcus epidermidis; test: Antibacterial activity against Staphylococcus epidermidis assessed as inhibition of bacterial growth incubated for 24 hrs by nutrient agar plate method; type: functional
[13] = tested on: Panel NCI-60 (60 carcinoma cell lines); test: Cytotoxicity against human Panel NCI-60 (60 carcinoma cell lines) assessed as reduction in cell growth incubated for 72 hrs by CCK-8 assay; type: functional, cell-based
[14] = target: Sigma non-opioid intracellular receptor 1 (Cavia porcellus, UniProt Q60492); test: Binding affinity to guinea pig sigma 1 receptor assessed as inhibition constant
Sigma non-opioid intracellular receptor 1, sequence (Q60492 whole entry): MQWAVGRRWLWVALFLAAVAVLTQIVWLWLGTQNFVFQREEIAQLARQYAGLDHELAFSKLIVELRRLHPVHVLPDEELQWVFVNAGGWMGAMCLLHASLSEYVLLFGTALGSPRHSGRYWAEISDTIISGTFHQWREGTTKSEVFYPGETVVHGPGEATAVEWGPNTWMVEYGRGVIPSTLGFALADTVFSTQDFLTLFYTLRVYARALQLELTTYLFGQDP

Rhizoctonia solani = test: Antifungal activity against Rhizoctonia solani assessed as inhibition of fungal growth at 1 microg/ml relative to control; type: functional

O=C1OC(O)C(Br)=C1Br (stereo not given) [MUCOBROMIC ACID]
IC50 (HCT-116): 1.3 µM

O=c1c(F)cn(Cc2cn(CCC[Si-]345OCC[N+]3(CCO4)CCO5)nn2)c(=O)n1Cc1cn(CCC[Si-]234OCC[N+]2(CCO3)CCO4)nn1 (stereo not given)
MIC50 (Escherichia coli [1]): 0.18 µg/mL (≈ 0.249 µM) | MIC50 (Bacillus subtilis): 0.18 µg/mL (≈ 0.249 µM) | MIC50 (Staphylococcus aureus [2]): 0.18 µg/mL (≈ 0.249 µM) | MIC50 (Vibrio cholerae): 0.18 µg/mL (≈ 0.249 µM)

C[Si](C)(C)c1ccc([Si](C)(CCCN2CCOCC2)c2ccc([Si](C)(C)C)o2)o1
IC50 (HT-1080 [3]): 3 µg/mL (≈ 6.67 µM) | IC50 (MG-22A [4]): 3 µg/mL (≈ 6.67 µM)

CCOc1cc(Cl)c(C(=O)NC(=O)Nc2nc3c(s2)C[Si](C)(C)CC3)cc1N1CCOCC1
EC50 [5]: 1 µM | EC50 [6]: 1.2 µM

CCCCCSc1nnn(CCCCC(=S)C(S)([Si](C)(C)C)[Si](C)(C)C)n1
MIC (Staphylococcus aureus [7]): 3.91 µg/mL (≈ 8.45 µM) | MIC (Escherichia coli [8]): 3.91 µg/mL (≈ 8.45 µM) | MIC (Salmonella typhimurium): 3.91 µg/mL (≈ 8.45 µM) | MIC (Pseudomonas aeruginosa): 3.91 µg/mL (≈ 8.45 µM)

C[Si](CCCN1CCOCC1)(c1ccco1)c1ccco1
IC50 (HT-1080 [3]): 100 µg/mL (≈ 327 µM) | IC50 (MG-22A [4]): 38 µg/mL (≈ 124 µM)

CC[Si](C)(CC)OCC[N+]1(C)CCc2ccccc2C1.[I-] (stereo not given)
LC50 (HT-1080 [9]): < 1 µg/mL | LC50 (MG-22A [10]): 2 µg/mL

CCC[Si]1(CCC)CCc2nc(NC(=O)NC(=O)c3cc(N4CCOCC4)c(OCC)cc3Cl)sc2C1
EC50 [5]: 1 µM | EC50 [6]: 1.2 µM

O=c1c(Cl)cn(Cc2cn(CCC[Si-]345OCC[N+]3(CCO4)CCO5)nn2)c(=O)n1Cc1cn(CCC[Si-]234OCC[N+]2(CCO3)CCO4)nn1 (stereo not given)
MIC50 (Escherichia coli [1]): 0.18 µg/mL (≈ 0.243 µM) | MIC50 (Bacillus subtilis): 0.18 µg/mL (≈ 0.243 µM) | MIC50 (Staphylococcus aureus [2]): 0.18 µg/mL (≈ 0.243 µM) | MIC50 (Vibrio cholerae): 0.18 µg/mL (≈ 0.243 µM)

CC[Si](CC)(CC)OC1OC(=O)C(Br)=C1Br (stereo not given)
IC50 (HCT-116): 1.6 µM

CC(=O)Nc1ccn([C@@H]2O[C@H](CO[Si](C)(C)C(C)(C)C)[C@@]3(OS(=O)(=O)C=C3N)[C@H]2O[Si](C)(C)C(C)(C)C)c(=O)n1
EC50 [11]: 0.097 µg/mL (≈ 0.157 µM)

CCCCSc1nnn(CCCCC(=S)C(S)([Si](C)(C)C)[Si](C)(C)C)n1
MIC (Staphylococcus aureus [7]): 3.91 µg/mL (≈ 8.71 µM) | MIC (Escherichia coli [8]): 3.91 µg/mL (≈ 8.71 µM) | MIC (Salmonella typhimurium): 3.91 µg/mL (≈ 8.71 µM) | MIC (Pseudomonas aeruginosa): 3.91 µg/mL (≈ 8.71 µM)

Cc1cn([C@@H]2O[C@H](CO[Si](C)(C)C(C)(C)C)[C@@]3(OS(=O)(=O)C=C3N)[C@H]2O[Si](C)(C)C(C)(C)C)c(=O)[nH]c1=O
EC50 [11]: 0.034 µg/mL (≈ 0.0576 µM)

C[Si](C)(C)c1ccc([Si](C)(CCCN2CCCCC2)c2ccc([Si](C)(C)C)o2)o1
IC50 (HT-1080 [3]): 3 µg/mL (≈ 6.7 µM) | IC50 (MG-22A [4]): 3 µg/mL (≈ 6.7 µM)

CC[Si](CC)(CC)c1ccc([Si](C)(CCCN2CCN(C)CC2)c2ccc([Si](CC)(CC)CC)o2)o1
IC50 (HT-1080 [3]): 3 µg/mL (≈ 5.48 µM) | IC50 (MG-22A [4]): 3 µg/mL (≈ 5.48 µM)

CCOc1cc(Cl)c(C(=O)NC(=O)Nc2nc3c(s2)C[Si](C)(c2ccc(OC)cc2)CC3)cc1-n1cccn1 (stereo not given)
EC50 [5]: 0.21 µM | EC50 [6]: 0.47 µM

CC[Si](CC)(CC)c1cccc(CN(Cc2ccccn2)Cc2ccccn2)c1O
MIC [12]: 1.2 µg/mL (≈ 2.86 µM)

CCOc1cc(Cl)c(C(=O)NC(=O)Nc2nc3c(s2)C[Si](c2ccccc2)(c2ccccc2)CC3)cc1N1CCOCC1
EC50 [5]: 1 µM | EC50 [6]: 1.2 µM

CCC[Si]1(c2ccc(OC)cc2)CCc2nc(NC(=O)NC(=O)c3cc(-n4cccn4)c(OCC)cc3Cl)sc2C1 (stereo not given)
EC50 [5]: 0.21 µM | EC50 [6]: 0.47 µM

CCCC[Si](C)(C)Oc1ccc(C(=O)N[C@@H](Cc2ccc(-c3ccccc3)cc2)C(=O)NC2CC(C)(C)NC(C)(C)C2)cc1
IC50 [13]: 1.5 µM

C[Si](C)(C)c1cccc(CN(Cc2ccccn2)Cc2ccccn2)c1O
MIC [12]: 1.2 µg/mL (≈ 3.18 µM)

COc1ccc(CN2CC[Si]3(CCCc4ccccc43)CC2)cc1
Ki [14]: 0.3 µM

C[Si](C)(C)C(S)(C(=S)CCCCn1nnc(SCc2ccccc2)n1)[Si](C)(C)C
MIC (Staphylococcus aureus [7]): 3.91 µg/mL (≈ 8.1 µM) | MIC (Escherichia coli [8]): 3.91 µg/mL (≈ 8.1 µM) | MIC (Salmonella typhimurium): 3.91 µg/mL (≈ 8.1 µM) | MIC (Pseudomonas aeruginosa): 3.91 µg/mL (≈ 8.1 µM)

Cc1cn([C@@H]2O[C@H](CO[Si](C)(C)C(C)(C)C)[C@@]3(OS(=O)(=O)C=C3N)[C@H]2O)c(=O)[nH]c1=O
EC50 [11]: > 100 µg/mL

CCCCCCC[Si](C)(C)OCC[N+]1(C)CCc2ccccc2C1.[I-] (stereo not given)
LC50 (HT-1080 [9]): < 1 µg/mL | LC50 (MG-22A [10]): 1 µg/mL

CC(C)(C)[Si](C)(C)OC1OC(=O)C(Br)=C1Br (stereo not given)
IC50 (HCT-116): 1.3 µM

CCCCCCCCCC[Si](C)(C)OCC[N+]1(C)CCc2ccccc2C1.[I-] (stereo not given)
LC50 (HT-1080 [9]): < 1 µg/mL | LC50 (MG-22A [10]): 1 µg/mL

CC(C)[Si](c1cccc(CN(Cc2ccccn2)Cc2ccccn2)c1O)(C(C)C)C(C)C
MIC [12]: 1.2 µg/mL (≈ 2.6 µM)

Cn1cc(C(=O)C(C#N)c2cccc([Si](C)(C)C)c2)c(C(F)F)n1 (stereo not given)
inhibition at 1 µg/mL (Rhizoctonia solani): 91.2%

O=c1c(I)cn(Cc2cn(CCC[Si-]345OCC[N+]3(CCO4)CCO5)nn2)c(=O)n1Cc1cn(CCC[Si-]234OCC[N+]2(CCO3)CCO4)nn1 (stereo not given)
MIC50 (Escherichia coli [1]): 0.18 µg/mL (≈ 0.217 µM) | MIC50 (Bacillus subtilis): 0.18 µg/mL (≈ 0.217 µM) | MIC50 (Staphylococcus aureus [2]): 0.18 µg/mL (≈ 0.217 µM) | MIC50 (Vibrio cholerae): 0.18 µg/mL (≈ 0.217 µM)
